# Reference: patent publication US9814787B2, “Luciferin amides” (University of Massachusetts, priority 2013, dated 2017)
# Entries after “also recorded” stand apart in the source; their conditions may differ.
# Tests used:
# FAAH = molecular target: T1, FAAH (Homo sapiens, UniProt O00519); experiment: In vitro FAAH assay: luciferin amide treated with recombinant FAAH, then R218K luciferase, bioluminescence; type: biochemical; conditions: 50 μM luciferin amide, 10 minutes at room temperature, R218K luciferase 3 μg/mL
# T1 construct: purchased Cayman Chemical
# T1 sequence (O00519 1-579): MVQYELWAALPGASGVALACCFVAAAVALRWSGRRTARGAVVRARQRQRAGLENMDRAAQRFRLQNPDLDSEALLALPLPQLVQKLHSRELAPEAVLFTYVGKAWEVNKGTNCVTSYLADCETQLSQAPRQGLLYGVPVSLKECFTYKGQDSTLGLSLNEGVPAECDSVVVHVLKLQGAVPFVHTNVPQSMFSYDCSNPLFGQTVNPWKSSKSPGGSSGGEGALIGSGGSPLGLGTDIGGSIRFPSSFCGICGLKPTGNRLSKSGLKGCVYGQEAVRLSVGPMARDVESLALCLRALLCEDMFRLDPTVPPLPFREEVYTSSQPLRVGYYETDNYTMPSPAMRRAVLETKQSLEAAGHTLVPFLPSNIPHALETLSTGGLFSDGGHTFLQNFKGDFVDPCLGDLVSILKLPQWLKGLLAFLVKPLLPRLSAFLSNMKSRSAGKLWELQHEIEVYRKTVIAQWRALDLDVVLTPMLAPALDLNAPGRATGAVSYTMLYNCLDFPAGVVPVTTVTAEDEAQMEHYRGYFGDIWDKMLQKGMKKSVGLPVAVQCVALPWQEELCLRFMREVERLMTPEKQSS
# Protocol: Recombinant FAAH, FAAH assay buffer, and FAAH inhibitors URB-597, PF-750, and PF-3845 were purchased from Cayman Chemical.
# Bioluminescence assays were performed in either a Turner Veritas luminometer or a Xenogen IVIS-100 imaging system. For Veritas experiments, white 96-well plates were used (Costar 3912). For IVIS experiments, black 96-well plates were used (Costar 3915).
# Luciferin amides (50 μM) were treated with FAAH and FAAH buffer (Cayman Chemical) in the presence or absence of 50 μM FAAH inhibitor URB-597 or 50 μM luciferase inhibitor 2-(4′-methoxyphenyl)benzothiazole. After 10 minutes at room temperature, R218K mutant firefly luciferase was added at a concentration of 3 μg/mL and bioluminescence was detected on a Turner Veritas luminometer.
# Four luciferin amides (50 μM), i.e., Compounds 1, 9, 10, and 25, were treated with a buffer alone, a buffer containing FAAH, a buffer containing FAAH+50 μM URB-597 (i.e., a FAAH inhibitor), or a buffer containing FAAH+50 μM luciferase inhibitor 2-(4′-methoxyphenyl)benzothiazole. After 10 minutes at room temperature, R218K luciferase was added at a concentration of 3 μg/mL and bioluminescence was detected on a Turner Veritas.
# Three luciferin amides (50 μM), i.e., Compounds 2, 9, and 25, were treated with a buffer alone, a buffer containing FAAH, a buffer containing FAAH 1:10 (i.e., a ten-fold dilution of FAAH), a buffer containing pig liver esterase (PLE), or a buffer containing PLE 1:10 (i.e., a ten-fold dilution of PLE). After one hour at room temperature, R218K luciferase was added at a concentration of 3 μg/mL and bioluminescence was detected on a Turner Veritas.
# [1] = test system: live CHO cells expressing R218K luciferase; experiment: Intact cell FAAH assay, light emission from live CHO cells expressing R218K luciferase; type: cell-based, Chinese hamster
# Protocol: (§1) Chinese hamster ovary-K1 (CHO-K1) cells were grown in a CO2 incubator at 37° C. with 5% CO2 and were cultured in F-12K Nutrient Mixture (GIBCO) supplemented with 10% fetal bovine serum and 100 U/mL penicillin/streptomycin.
# (§2) Wild-type and R218K mutant luciferases were cloned into the BamHI-NotI site of pCDNA 3.1 and transiently transfected into CHO-K1 cells with Lipofectamine 2000 in 96-well tissue culture-treated plates for intact cell assays, or 6-well plates for lysed cell assays. For intact cells, 0.075 μg plasmid/well was transfected; for lysed cells, 2.25 μg plasmid/well was transfected.
# […] The cells were incubated for one hour in the CO2 incubator at 37° C. Cells were then washed with Hank's balanced salt solution (HBSS) and overlaid with 60 μL a luciferin amide substrate in HBSS. Imaging assays were performed 3 minutes after substrate addition, with final substrate concentrations ranging from 0.122 to 250 μM.
# Seven luciferin amides, i.e., Compounds 1-4, 9, 10, and 25, were tested in live CHO cells expressing R218K luciferase at various concentrations (i.e., 0.12 μM, 0.25 μM, 0.5 μM, 1 μM, 2 μM, 4 μM, 8 μM, 16 μM, 31 μM, 62 μM, 125 μM, and 250 μM).
# (§3) Compound 25 and Compound 10, as well as their corresponding luciferins (i.e., D-Luciferin and CycLuc2, respectively), were tested in live CHO cells expressing wild-type (WT) luciferase or R218K (RK) luciferase at various concentrations (i.e., 0.125 μM, 0.25 μM, 0.5 μM, 1 μM, 2 μM, 4 μM, 8 μM, 16 μM, 31 μM, 62 μM, 125 μM, and 250 μM).
# [2] = test system: live CHO cells expressing wild-type (WT) luciferase; experiment: Intact cell FAAH assay, light emission from live CHO cells expressing wild-type luciferase; type: cell-based, Chinese hamster; conditions: all concentration levels
# Protocol: as §1, §2
# Medium was removed from transfected CHO cells and replaced with 60 μL Optimem with or without a FAAH inhibitor (10 μM). The cells were incubated for one hour in the CO2 incubator at 37° C. Cells were then washed with Hank's balanced salt solution (HBSS) and overlaid with 60 μL a luciferin amide substrate in HBSS. Imaging assays were performed 3 minutes after substrate addition, with final substrate concentrations ranging from 0.122 to 250 μM.
# as §3
# [3] = test system: FVB mice expressing luciferase in brain tissue; experiment: In vivo bioluminescence imaging in brains of FVB mice injected with AAV9-luc+ in the striatum; conditions: doses 200-fold and 1000-fold lower than standard D-luciferin dose
# Protocol: FVB mice were injected with AAV9-luc+ in the brain striatum. Bioluminescence assays were performed approximately nine months after AAV injection. Each luciferin amide was diluted into PBS to the indicated concentration from a 50 mM DMSO stock solution and filtered (0.22 μm) prior to intraperitoneally injection (0.1 mL per mouse). Mice were anesthetized with isoflurane (2% in 1 L/min oxygen) and images acquired on a Xenogen IVIS 100 imaging system and analyzed with Living Image software.
# Certain luciferin amides described herein were tested to determine whether they would image well in live mice. For these studies, FVB mice were injected with adeno-associated virus 9 (AAV9)-luciferase constructs into the brain striatum.
# Bioluminescence imaging (BLI) in the brain is more challenging than imaging in the rest of the organism, in part because a luciferase substrate (i.e., a luciferin) must cross the blood-brain barrier. Therefore, the ability of a synthetic luciferin (i.e., Compound 9's corresponding luciferin (CycLuc1)) to allow bioluminescence imaging in these mice, as compared to the native firefly luciferase substrate (i.e., D-luciferin) was first tested. Specifically, each substrate was injected intraperitoneally (IP) in PBS at a volume of 0.1 mL, D-luciferin being at a concentration of 100 mM and CycLuc1 being at a concentration of 5 mM. […] CycLuc1 was then injected at a 320-fold lower dose (0.06 mL of 0.5 mM) than D-luciferin.
# Specifically, Compound 9 (i.e., CycLuc1 amide) was injected at 0.5 mM in 0.5% DMSO/PBS (0.06 mL).
# In this figure, mice in the top row were treated with luciferin amides in the amounts indicated in the figure, and the mice in the bottom row were the same mice that were imaged one day later using a standard dose of D-luciferin.
smiles,measurement,setting,value
"CN1CCc2cc3nc(C4=N[C@@H](C(N)=O)CS4)sc3cc21 [Compound 10, (S)-4,5-dihydro-2-(6,7-dihydro-5-methyl-5H-thiazolo[4,5-f]indol-2-yl)thiazole-4-carboxamide]",increase in bioluminescence signal on addition of FAAH versus buffer,FAAH,139 fold
same,"effect of FAAH inhibitors URB-597, PF-750 and PF-3845 on light output",[1]; 50 μM FAAH inhibitor,complete inhibition
same,light emission relative to the corresponding luciferin (CycLuc2),"[1]; all concentrations tested, 0.12 to 250 μM",greater light emission than its corresponding luciferin; also recorded: greater light output than cells treated with Compound 10's corresponding luciferin
same,light output relative to other substrate-luciferase combinations,[1]; concentrations above 30 μM,only exceeded by cells expressing the wild-type luciferase and treated with D-luciferin
same,light emission relative to other substrate-luciferase combinations,[1]; substrate concentrations below 30 μM,higher light emission than all other substrate-luciferase combinations
same,light output relative to the corresponding luciferin (CycLuc2),[2],greater light output than cells treated with Compound 10's corresponding luciferin
same,bioluminescence signal higher than standard D-luciferin imaging conditions,[3],10 fold
